How the values were obtained:
HIV-1 with HIV-1AD8 Env = test: microbe, parasite or virus in culture; format: cell-based; settings: for IC50: Human immunodeficiency virus 1, Cf2Th-CD4/CCR5 target cells, 48 hours, luciferase, means and standard errors of four experiments, read-out: 50% inhibitory concentration (IC50), AD8; for Potency of inhibition of HIV-1 infection (in words): Table 1 HIV-1 Envs
HIV-1 with BG505 Env = test: microbe, parasite or virus in culture; format: cell-based; settings: Human immunodeficiency virus 1; Cf2Th-CD4/CCR5 target cells, 48 hours, luciferase; means and standard errors of four experiments; read-out: 50% inhibitory concentration (IC50), BG505
[1] = system: HIV-1 with HIV-1JR-FL Env; test: microbe, parasite or virus in culture; format: cell-based; settings: Human immunodeficiency virus 1; Cf2Th-CD4/CCR5 target cells, 48 hours, luciferase; means and standard errors of four experiments; read-out: 50% inhibitory concentration (IC50), JR-FL
[2] = system: HIV-1 with JR-FL S375W Env; format: cell-based; settings: Cf2Th-CD4/CCR5 target cells, 48 hours, luciferase; read-out: 50% inhibitory concentration (IC50), JR-FL S375W
[3] = system: envelope glycoproteins of the amphotropic murine leukemia virus (AMLV); test: microbe, parasite or virus in culture; format: cell-based; settings: Cf2Th-CD4/CCR5 target cells, 48 hours, luciferase, specificity control, read-out: 50% inhibitory concentration (IC50), AMLV
HIV-1AD8 Env on VLPs [4] = test: Reversibility of compound effects on VLP Env conformation (19b antibody recognition after washing); settings: for Durability / reversibility of Env conformational effects (in words): after washing
Procedure: (§1) Characterization of VLP-associated Env: To prepare VLPs with HIV-1AD8 Env, 150-mm dishes of 30-40% confluent A549-Gag/Env cells were seeded and, on the following day, treated with 2 μg/ml doxycycline. Approximately 72 hours after induction, cell supernatants were harvested and cleared by low-speed centrifugation (500×g for 15 minutes at 4° C.) and 0.45-μ filtration. VLPs were pelleted by centrifugation at 100,000×g for one hour at 4° C. The resuspended VLP preparation was clarified by low-speed centrifugation. BMS-806 and compounds described herein were added to the clarified VLP-containing suspensions. In some cases, the VLP-compound mixtures were irradiated with a 100-watt, 365-nm ultraviolet (UV) lamp for 10 minutes at room temperature. For all UV studies, exposure of the samples to visible light was minimized.
For studies of the reversibility of effects, the compounds were added to the VLPs and mixed for several seconds at room temperature. Then the VLPs were pelleted (20,000×g for 30 minutes at 4° C.) twice, washing with 1.5 ml PBS with 2% DMSO. The pelleted VLPs were resuspended in 1 ml PBS with 2% DMSO and incubated at room temperature for various lengths of time (20 minutes—3 weeks). Control VLPs were incubated in the continued presence of the compounds at room temperature for the same length of time. Then the VLPs were pelleted (20,000×g for 30 minutes at 4° C.) and the pellet incubated with 1.5% Triton X-100 for 30 minutes at 4° C. The VLP lysates were centrifuged (20,000×g for 30 minutes at 4° C.) and the supernatants were incubated with antibodies (10 μg/ml) in a 50-μl volume with 25 mg/ml of Protein A-Sepharose beads for one hour at 4° C. The beads were pelleted (1000 rpm for 1 minute at room temperature) and washed three times with 1 ml wash buffer with 1% Triton X-100. The beads were suspended in NuPAGE LDS Sample Buffer (ThermoFisher), boiled and analyzed by Western blot, as described above.
The BMS-806-induced decrease in binding of the 19b anti-V3 antibody can be used as an indicator of BMS-806-Env binding, allowing estimation of the stability of the Env-compound complex. BMS-806 and BMS-529 were incubated with the HIV-1AD8 Env on VLPs. The VLPs were then washed and incubated at room temperature for various lengths of time in a buffer with (+/+) or without (+/−) compound. After this incubation, Env conformation was assessed using the 19b anti-V3 antibody, the 2G12 antibody (the binding of which is not affected by BMS-806), and a negative control human immunoglobulin (hIgG) preparation. 19b recognition of Env in the washed samples (+/−) was compared with those in the samples continuously incubated with the compound (+/+) and the untreated samples (−) (FIG. 4). […] Despite this slow rate of dissociation of compounds described herein from Env, the binding and the consequent effects of these compounds on Env conformation appear to be reversible.

HIV-1AD8 Env on VLPs [5] = test: Shedding of gp120 from VLP Env; settings: 4° C. and 37° C., 4 days, no detergent
Procedure: Shedding of gp120 from VLP Env: The effect of compounds on the spontaneous shedding of gp120 from VLP Env was evaluated. VLPs with the wild-type HIV-1AD8 Env were prepared from the supernatants of A549-Gag/Env cells, as described above. The VLPs were suspended in PBS, to which was added either DMSO or a compound described herein. An aliquot of the VLP suspension in PBS/DMSO was processed as described below to serve as a Day 0 control. The VLP suspensions were incubated for 4 days at 4° C., room temperature or 37° C. (with gentle rocking). Then the VLPs were pelleted (100,000×g for 30 min at 4° C.). The pellets and supernatants were boiled in LDS sample buffer and analyzed by Western blotting with either 1:2000 goat anti-gp120 polyclonal antibody (ThermoFisher) and HRP-conjugated rabbit anti-goat IgG antibody, or with 1:5000 rabbit anti-Gag p55/p24/p17 antibody (Abcam) and HRP-conjugated goat anti-rabbit IgG antibody (Abcam).

VLP HIV-1AD8 Env = test: Antibody recognition of VLP-associated Env; settings: compound plus UV irradiation
Procedure: as §1
For studies of the binding of ligands (antibodies, CD4-Ig and C34-Ig) to detergent-solubilized VLP Env, VLPs prepared as described above were pelleted (20,000×g for 30 minutes at 4° C.). The pellet was incubated with 1.5% Triton X-100 for 30 minutes at 4° C. The VLP lysates were centrifuged (20,000×g for 30 minutes at 4° C.) and the supernatants were incubated with ligands (10 μg/ml) in a 50-μl volume with 25 mg/ml of Protein A-Sepharose beads for one hour at 4° C. The beads were pelleted (1000 rpm for 1 minute at room temperature), washed three times with 1 ml wash buffer with 1% Triton X-100, suspended in LDS Sample Buffer and analyzed by Western blot, as described above.
In a second assay format, the effect of the compounds was analyzed on the binding of antibodies to Env on intact VLPs, in the absence of detergent. In this case, VLPs in A549-Gag/Env supernatants, clarified as described above, were pelleted at 100,000×g for one hour at 4° C. The pellet was resuspended in PBS and the VLPs pelleted at 20,000×g for 30 minutes at 4° C. The VLPs were resuspended in PBS and incubated with antibodies (10 μg/ml) in a 100-μl volume for one hour at 4° C. The VLPs were then pelleted (20,000×g for 30 minutes at 4° C.) and washed with PBS three times. The VLP pellet was then solubilized in 1.5% Triton X-100 for 30 minutes at 4° C., after which the VLP lysates were clarified by centrifugation at 20,000×g for 30 minutes at 4° C. The supernatants were incubated with 50 μl of Protein A-Sepharose beads for one hour at 4° C. The beads were pelleted (1000 rpm for 1 minute at room temperature), washed three times with 1 ml wash buffer with 1% Triton X-100, suspended in LDS Sample Buffer, and analyzed by Western blot, as described above.

COc1ccc(-c2ccc(CNC(=O)c3ccc(C4(C(F)(F)F)N=N4)cc3)o2)c2[nH]cc(C(=O)C(=O)N3CCN(C(=O)c4ccccc4)CC3)c12 [AEG-II-159] was tested, and the IC50 (HIV-1 with HIV-1AD8 Env) was 0.2 nM, the IC50 (HIV-1 with BG505 Env) was 0.8 nM and the IC50 [1] was 1.6 nM. The IC50 [2] was greater than 100 nM, the IC50 [3] was greater than 100 nM and the “Durability / reversibility of Env conformational effects (in words)” value (HIV-1AD8 Env on VLPs [4]) was “at least three weeks”.

COc1ccc(-c2ccc(CNC(=O)c3ccccc3)o2)c2[nH]cc(C(=O)C(=O)N3CCN(C(=O)c4ccccc4)CC3)c12 [AEG-III-032] was tested, and the IC50 (HIV-1 with HIV-1AD8 Env) was 0.36 nM, the “Potency of inhibition of HIV-1 infection (in words)” value (HIV-1 with HIV-1AD8 Env) was “potencies comparable to that of BMS-806” and the IC50 (HIV-1 with BG505 Env) was 1.5 nM. For the same compound, the IC50 [1] was 0.6 nM, the IC50 [2] was greater than 100 nM and the IC50 [3] was greater than 100 nM.

In the case of O=C(Nc1cccc2c(C(=O)C(=O)N3CCN(C(=O)c4ccccc4)CC3)c[nH]c12)c1ccc(C2(C(F)(F)F)N=N2)cc1 [AEG-III-087], the IC50 (HIV-1 with HIV-1AD8 Env) is reported as 0.06 nM, the IC50 (HIV-1 with BG505 Env) is reported as 1.9 nM and the IC50 [1] is reported as 0.1 nM. The IC50 [2] was greater than 100 nM, the IC50 [3] was greater than 100 nM and the “Spontaneous shedding of gp120 into the VLP supernatant” value (HIV-1AD8 Env on VLPs [5]) was “decreased the shedding of gp120”. For the same compound, the “VLP Env recognition by poorly neutralizing antibodies two weeks after treatment” value (VLP HIV-1AD8 Env; washed, two weeks without compound) was “lowered Env recognition by poorly neutralizing antibodies” and the “VLP Env recognition by bNAbs two weeks after treatment” value (VLP HIV-1AD8 Env; PG9, PGT145, PGT151, 35022, 2F5, 4E10, 10E8) was “this increase was not seen”.

In the case of O=C(Nc1cccc2c(C(=O)C(=O)N3CCN(C(=O)c4ccccc4)CC3)c[nH]c12)c1ccccc1 [AEG-III-096], the IC50 (HIV-1 with HIV-1AD8 Env) is reported as 2.4 nM, the “Potency of inhibition of HIV-1 infection (in words)” value (HIV-1 with HIV-1AD8 Env) is reported as “potencies comparable to that of BMS-806” and the IC50 [1] is reported as 0.9 nM. For the same compound, the IC50 [2] was greater than 100 nM, the IC50 [3] was greater than 100 nM and the “Durability / reversibility of Env conformational effects (in words)” value (HIV-1AD8 Env on VLPs [4]) was “much faster reversibility”.

With COc1cnc(-n2cnc(C)n2)c2[nH]cc(C(=O)C(=O)N3CCN(C(=O)c4ccccc4)CC3)c12 [BMS-529, reference compound] the “Time until conformational effects on Env are reversed after washing” value (HIV-1AD8 Env on VLPs [4]; VLPs in PBS with 2% DMSO, room temperature) was 2 to 4 days and the “Conformational effect on 19b binding after washing” value (HIV-1AD8 Env on VLPs [4]; twenty-four hours after washing, room temperature) was “still apparent”.

Reference: patent US12729194B2, “Compounds for the treatment of human immunodeficiency virus” (priority 2019, dated 2026)
